Test results taken from PubChem BioAssay AID493193 (Broad Institute, 2011).
Active and inactive are the calls of the source. How the calls were made is not given here.

Tested on: not listed separately
Assay: PubChem AID 493193
Details: U2OS HRE-luciferase reporter, luminescence, HIF pathway activation; at 38 µM (top of the series)
In the case of `OCC1CCN(Cc2ccc(O)c3ncccc23)CC1`, the activation is reported as 8.79% (inactive). With `CC(C)(C)OC(=O)N1CCN(Cc2ccc(O)c3ncccc23)CC1` the activation was 4.98% (inactive). In the case of `Oc1ccc(CNC2CCc3ccccc32)c2cccnc12` (stereo not given), the activation is reported as 7.38% (inactive). In the case of `Oc1ccc(CNC2Cc3ccccc3C2)c2cccnc12`, the activation is reported as 21.4% (inactive). For `CC1CN(Cc2ccc(O)c3ncccc23)CC(C)O1` (stereo not given), the activation was 1.16% (inactive). With `Oc1ccc(CN2CCc3ccccc3C2)c2cccnc12` the activation was 0.929% (inactive). With `COc1ccccc1N1CCN(Cc2ccc(O)c3ncccc23)CC1` the activation was 10.3% (inactive). With `Oc1ccc(CN2CCC(Cc3ccccc3)CC2)c2cccnc12` the activation was 14.5% (inactive). For `N#CC1(c2ccccc2)CCN(Cc2ccc(O)c3ncccc23)CC1`, the activation was 9.09% (inactive).

Tested on: U2OS HRE-luciferase reporter, luminescence, HIF pathway activation
Assay: PubChem AID 493193
Details: not given
In the case of `CC(C)(C)c1ccc(CNc2nc(-c3ccccn3)nnc2-c2ccccc2)cc1`, the AC40 is reported as 2.09 µM. For `c1ccc(CCNc2nc(-c3ccccn3)nnc2-c2ccccc2)cc1`, the AC40 was 2.98 µM. Molecule `C[C@@H](Nc1nc(-c2ccccn2)nnc1-c1ccccc1)C1CCCCC1` has an AC40 of 6.18 µM. For `CC(Nc1nc(-c2ccccn2)nnc1-c1ccccc1)c1ccccc1` (stereo not given), the AC40 was 5.33 µM. In the case of `COc1ccc(CNc2nc(-c3ccccn3)nnc2-c2ccccc2)cc1`, the AC40 is reported as 5.05 µM. With `CC(C)(C)CCNc1nc(-c2ccccn2)nnc1-c1ccccc1` the AC40 was 2.74 µM. Work on `c1ccc(-c2nnc(-c3ccccn3)nc2NCc2ccccn2)cc1` yielded an AC40 of 26 µM. For `c1ccc(-c2nnc(-c3ccccn3)nc2NCCc2ccccn2)cc1`, the AC40 was 15.4 µM. Molecule `Cc1ccc(CNc2nc(-c3ccccn3)nnc2-c2ccccc2)cc1C` has an AC40 of 3.09 µM. Molecule `c1ccc(-c2nnc(-c3ccccn3)nc2N2CCC(C3CCCCC3)C2)cc1` (stereo not given) has an AC40 of 3.71 µM. `Clc1cccc(CNc2nc(-c3ccccn3)nnc2-c2ccccc2)c1` showed an AC40 of 2.5 µM. `c1ccc(-c2cccc(CNc3nc(-c4ccccn4)nnc3-c3ccccc3)c2)cc1` gave an AC40 of 2.15 µM. Work on `C[C@H](Nc1nc(-c2ccccn2)nnc1-c1ccccc1)C1CCCCC1` yielded an AC40 of 4.15 µM. In the case of `c1ccc(-c2nnc(-c3ccccn3)nc2NCC2CCOCC2)cc1`, the AC40 is reported as 26.1 µM. `C[C@@H](Nc1nc(-c2ccccn2)nnc1-c1ccccc1)c1ccccc1` showed an AC40 of 6.45 µM. For `Oc1ccc(CN2CCC3CCCCC3C2)c2cccnc12` (stereo not given), the AC40 was 32.7 µM. `c1ccc(-c2nnc(-c3ccccn3)nc2NCc2cccnc2)cc1` showed an AC40 of 24.3 µM. For `COc1cccc(CNc2nc(-c3ccccn3)nnc2-c2ccccc2)c1`, the AC40 was 4.85 µM. Work on `Oc1ccc(CN2CCc3ccccc3C2)c2cccnc12` yielded an AC40 of 19.5 µM. With `c1ccc(-c2ccc(CNc3nc(-c4ccccn4)nnc3-c3ccccc3)cc2)cc1` the AC40 was 1.92 µM. Work on `c1ccc(-c2nnc(-c3ccccn3)nc2N2CCC(c3ccccc3)C2)cc1` (stereo not given) yielded an AC40 of 3.55 µM.
